Experiment: xn = mol fraction of the nth substance listed

CCCC[n+]1ccn(C)c1.F[B-](F)(F)F + CC(C)=O
Details	electrical conductivity [S/m]	viscosity [mPa·s]
296.15 K, 101 kPa, x2 = 0	0.35	–
296.15 K, 101 kPa, x2 = 0.3019	2.03	–
296.15 K, 101 kPa, x2 = 0.6252	2.89	–
296.15 K, 101 kPa, x2 = 0.7956	3.5	–
296.15 K, 101 kPa, x2 = 0.8537	3.61	–
296.15 K, 101 kPa, x2 = 0.9008	3.71	–
296.15 K, 101 kPa, x2 = 0.9396	2.92	–
296.15 K, 101 kPa, x2 = 0.9722	1.66	–
298.15 K, 101 kPa, x2 = 0	0.194	116
298.15 K, 101 kPa, x2 = 0.0973	0.311	78
298.15 K, 101 kPa, x2 = 0.1863	0.44	53.3
298.15 K, 101 kPa, x2 = 0.2878	0.623	34.2
298.15 K, 101 kPa, x2 = 0.3877	0.87	21.4
298.15 K, 101 kPa, x2 = 0.4853	1.18	12.9
298.15 K, 101 kPa, x2 = 0.5858	1.61	7.39
298.15 K, 101 kPa, x2 = 0.6762	1.98	4.24
298.15 K, 101 kPa, x2 = 0.8151	2.2	1.61
303.15 K, 100 kPa, x1 = 0.0999	–	0.726
303.15 K, 100 kPa, x1 = 0.2	–	1.48
303.15 K, 100 kPa, x1 = 0.3002	–	2.789
303.15 K, 100 kPa, x1 = 0.4003	–	4.968
303.15 K, 100 kPa, x1 = 0.4996	–	8.387
303.15 K, 100 kPa, x1 = 0.6008	–	14.14
303.15 K, 100 kPa, x1 = 0.7006	–	22.8
303.15 K, 100 kPa, x1 = 0.7995	–	35.07
303.15 K, 100 kPa, x1 = 0.9	–	54.72
303.15 K, 100 kPa, x1 = 1	–	85.4
313.15 K, 100 kPa, x1 = 0.0999	–	0.654
313.15 K, 100 kPa, x1 = 0.2	–	1.3
313.15 K, 100 kPa, x1 = 0.3002	–	2.394
313.15 K, 100 kPa, x1 = 0.4003	–	4.185
313.15 K, 100 kPa, x1 = 0.4996	–	6.706
313.15 K, 100 kPa, x1 = 0.6008	–	10.83
313.15 K, 100 kPa, x1 = 0.7006	–	16.72
313.15 K, 100 kPa, x1 = 0.7995	–	24.44
313.15 K, 100 kPa, x1 = 0.9	–	36.14
313.15 K, 100 kPa, x1 = 1	–	53.84
323.15 K, 100 kPa, x1 = 0.0999	–	0.595
323.15 K, 100 kPa, x1 = 0.2	–	1.171
323.15 K, 100 kPa, x1 = 0.3002	–	2.094
323.15 K, 100 kPa, x1 = 0.4003	–	3.567
323.15 K, 100 kPa, x1 = 0.4996	–	5.516
323.15 K, 100 kPa, x1 = 0.6008	–	8.67
323.15 K, 100 kPa, x1 = 0.7006	–	12.67
323.15 K, 100 kPa, x1 = 0.7995	–	17.99
323.15 K, 100 kPa, x1 = 0.9	–	25.35
323.15 K, 100 kPa, x1 = 1	–	36.27

Nc1ccccc1 + CCCC[n+]1ccn(C)c1.O=S(=O)([O-])C(F)(F)F
Details	viscosity [mPa·s]
323.15 K, 100 kPa, x1 = 1	1.927

CC1COC(=O)O1 (stereo unspecified) + CCCC[n+]1ccn(C)c1.O=S(=O)([N-]S(=O)(=O)C(F)(F)F)C(F)(F)F
101.3 kPa
Details	viscosity [mPa·s]
293.15 K, x2 = 0.8776	51
298.15 K, x2 = 0.1013	4.029
298.15 K, x2 = 0.7	28.89
303.15 K, x2 = 0.8079	29.79
303.15 K, x2 = 0.8776	33.75
308.15 K, x2 = 0.1013	3.249
308.15 K, x2 = 0.1557	4.102
308.15 K, x2 = 0.4128	9.65
308.15 K, x2 = 0.5045	12.33
313.15 K, x2 = 0.5045	10.67
318.15 K, x2 = 0.7	15.35
323.15 K, x2 = 0.7	13.28
333.15 K, x2 = 0.8776	13.61
338.15 K, x2 = 0.3071	3.659
348.15 K, x2 = 0	1.14
348.15 K, x2 = 0.1557	2.025

CCCCCCCCO + CCCCCCCC(=O)[O-].c1c[nH+]c[nH]1
Details	viscosity [mPa·s]
293.15 K, 101.3 kPa, x1 = 1	9.18

CCCC[n+]1ccn(C)c1.F[B-](F)(F)F + NC(N)=O + O
Details	viscosity [mPa·s]
298.15 K, 100 kPa, x2 = 0, x3 = 0.9487	1.99

CCCOCCO + COS(=O)(=O)[O-].Cn1cc[n+](C)c1
viscosity [mPa·s], 101 kPa
Details	x2 = 0.00104	x2 = 0.002597	x2 = 0.004149	x2 = 0.005696	x2 = 0.007238	x2 = 0.008775
293.15 K	2.6	2.63	2.65	2.67	2.7	2.73
303.15 K	2.15	2.18	2.21	2.24	2.27	2.29
313.15 K	1.81	1.84	1.88	1.91	1.95	1.99

C=C[n+]1ccn(CCCC)c1.N[C@@H](Cc1c[nH]cn1)C(=O)[O-] + O
101.3 kPa
Details	electrical conductivity [S/m]	viscosity [mPa·s]
303.15 K, x1 = 0.3	3.56	8.1
303.15 K, x1 = 0.9	0.59	1179
323.15 K, x1 = 1	0.21	1418
333.15 K, x1 = 0.3	–	4.19
343.15 K, x1 = 0.7	–	29.04
353.15 K, x1 = 0.5	–	12.68

CCCC[n+]1ccn(C)c1.F[B-](F)(F)F + C=CC(=O)OC
101 kPa, x1 = 1
Details	viscosity [mPa·s]
303.15 K	76.3
313.15 K	46.2

NCC(=O)NCC(=O)O + CCCCCCCCCCCC[N+](C)(C)Cc1ccccc1.[Cl-] + O
101 kPa, x1 = 0.0008948, x2 = 0
Details	electrical conductivity [S/m]
293.15 K	0.00137
298.15 K	0.00165
303.15 K	0.00198
308.15 K	0.00239
313.15 K	0.00284

CCCCCCCCn1cc[n+](C)c1.O=S(=O)([N-]S(=O)(=O)C(F)(F)F)C(F)(F)F + CCCCOC(C)=O
298.15 K, 100 kPa
Details	electrical conductivity [S/m]	viscosity [mPa·s]
x2 = 0	0.131	90.3
x2 = 0.2414	0.194	–
x2 = 0.7054	–	6.46
x2 = 0.8427	0.361	–

CCCCCCCCn1cc[n+](C)c1.O=S(=O)([N-]S(=O)(=O)C(F)(F)F)C(F)(F)F + CN(C)C=O
viscosity [mPa·s], 101 kPa
Details	293.15 K	303.15 K	313.15 K	323.15 K	333.15 K	343.15 K	353.15 K	363.15 K
x1 = 0.001926	0.959	0.858	0.771	0.702	0.641	0.59	0.543	0.502
x1 = 0.003917	0.982	0.876	0.787	0.715	0.653	0.598	0.552	0.51
x1 = 0.007695	1.019	0.907	0.818	0.738	0.672	0.617	0.568	0.524
x1 = 0.01197	1.059	0.942	0.85	0.762	0.694	0.635	0.584	0.539
x1 = 0.01518	1.096	0.971	0.877	0.784	0.713	0.653	0.598	0.552
x1 = 0.0193	1.136	1.006	0.909	0.81	0.734	0.669	0.614	0.579

CC1COC(=O)O1 (stereo unspecified) + CC[N+](CC)(CC)CC.F[B-](F)(F)F
101 kPa, x1 = 1
Details	viscosity [mPa·s]
283.15 K	3.551
298.15 K	2.531
308.15 K	2.09
313.15 K	1.918

From the CheMixHub ionic liquid set
